From US20030114460A1, “Pharmaceutical conjugates with enhanced pharmacokinetic characteristics” (priority 2001, published 2003)
Read-outs that look alike come from different tables or passages of the source.

Tests used:
[1] = tested on: CMV retinitis; test: Patient case, CMV retinitis (Example 5); format: in vivo, human
Description: A person complains of gradual onset of floaters and progressive reduction of vision in both eyes, but without pain. The patient has been HIV+ for 7 years, and was recently hospitalized for Cryptococcal pneumonia. The patient is taking AZT, ddI, indinivir, and has been for the past three years, with moderate compliance. […] Granular hemorrhagic areas are noted throughout the retina, with a “brushfire” appearance. […] These findings are all evidence of CMV retinitis, secondary to AIDS. Ganciclovir-conjugate 0.5% 1 drop four times daily in both eyes is prescribed. At a two-week follow-up examination, the patient states full compliance with the treatment protocol. The patient also states an improvement in vision with a reduced number of floaters. […] The patient is advised to continue the ganciclovir-conjugate drops indefinitely.

[2] = Aqueous solubility of memantine HCl; format: physicochemical; details: HCl salt, pH 6.5 aqueous solution
Description: (§1) For example, memantine may be employed as an EEC in accordance with this invention. […] The memantine HCl apparent octanol/water partition coefficient is Log 3.0. The high apparent partition and high solubility appear contradictory. However, the charged amine of memantine HCl (pKa 10.27) results in the high solubility while the free base results in the high partitioning of memantine into octanol. As the HCl salt and free base are in equilibrium, permeation of the free base through biologic tissues results. The impact of a high solubility and a high partition coefficient of the free base are a high bioavailability.

[3] = In-vitro melanin binding
[4] = Apparent octanol/water partition coefficient; format: physicochemical; details: memantine HCl, printed as Log 3.0
Description: as §1

[5] = pKa of the charged amine; format: physicochemical; details: charged amine of memantine HCl
Description: as §1

[6] = Autoradiography of the eye after topical ophthalmic instillation; format: in vivo, albino and pigmented rabbits
Method: General disposition of topical ophthalmic 1-amino-3,5-dimethyladamantane hydrochloride (memantine) instillation was assessed by autoradiography. Briefly, albino and pigmented rabbits were dosed via topical ophthalmic instillation with a 0.74% aqueous isotonic memantine solution, pH 7.4. After dosing autoradiographic sections of the eye were acquired at 0.25, 0.5, 1, and 2 and 24 hours post dosing. […] Further, a qualitative assessment of residence time could be made from the data.

[7] = Ocular tissue concentrations after oral and topical dosing; format: in vivo, Rabbits; details: rabbit, retina, read-out: retinal memantine concentration
Method: Ocular tissue concentrations were also determined after oral and topical dosing. Rabbits were dosed topically with 35 μl of a 0.1% aqueous solution of memantine twice a day for 7 days. Another subset of rabbits was dosed orally with 2 mg/kg memantine for seven days. At the end of the dosing period ocular tissue concentrations were quantified. The retinal memantine concentrations from topical and oral dosing were essentially equivalent (107 ng/ml and 108 ng/ml, respectively).

[8] = format: in vivo, human
Method: A person receives a routine eye examination. […] With their habitual spectacle correction, their best corrected visual acuities are 20/20 in both eyes. Their pupils are found to be round, equally reactive to light, and without any presence of afferent pupillary defect. […] Their intraocular pressures are measured at 32 mmHg in both eyes (with the Goldmann tonometer at 3 pm). […] A Humphrey C-20 automated threshold visual field test indicates the presence of generalized depression in both eyes. […] Their blood pressure is 125/85 and their pulse rate is 60 beats/min. Because of the enlarged cup to disc ratio, elevated intraocular pressures, and the generalized depression of the threshold visual fields, they are diagnosed with open angle glaucoma. Timolol 0.5% 1 drop two times daily in both eyes is prescribed for two weeks. The patient is to return in two weeks for a follow-up evaluation. At the follow-up evaluation, they state that they have been compliant with the prescribed therapy. Their intraocular pressure is measured at 28 mmHg at 1 pm with the Goldmann tonometer. Their blood pressure is 118/86 and their pulse rate is 65 beats/min. Bromonidine-conjugate 0.2% 1 drop two times daily in both eyes is added to the treatment regimen. After another two weeks, the patient has a follow-up evaluation, during which, the patient's intraocular pressure measures 18 mmHg in the right eye, and 17 mmHg in the left eye. Their blood pressure and pulse rate remain normal. The patient is re-evaluated every 3 months with the continuation of combination therapy.

[9] = tested on: fungal corneal ulcer; test: Patient case, fungal corneal ulcer (Example 3); format: in vivo, human; details: next day; 5% natamycin drops each hour (day) / every two hours (night) with 5% homatropine four times each day
Method: A […] […] […] comes to a clinic complaining of severe pain, redness, tearing, and photophobia in […] left eye. One day before, the patient was hit by a tree twig while playing football in the park. Severe conjunctival hyperemia with clear discharge is observed. […] Intraocular pressure is also elevated (20 mmHg) by Goldman tonometry. A fungal corneal ulcer is diagnosed. The patient is administered 5% natamycin drops each hour during the day and every two hours at night and 5% homatropine four times each day for […] left eye. […] The patient is experiencing blurriness in the left eye. […] The extent of Na Fl stain is also enlarged. The patient is given 0.15% amphotericin B drops and 5% ketoconazole-conjugate drops once daily in both eyes. […] 5% natamycin drops every two hours are administered around the clock, as well as 5% homatropine two times daily, and 5% ketoconazole-conjugate drops once daily.

## CC12CC3CC(N)(C1)CC(C(=O)OCC(CO)OCn1cnc4c(=O)[nH]c(N)nc41)(C3)C2 (stereo not shown) [Ganciclovir-conjugate]
[1]; one month follow-up, same regimen
  clinical outcome: complete remission of ocular manifestations of CMV retinitis
[1]; two-week follow-up, 0.5% 1 drop four times daily in both eyes
  ophthalmic examination outcome: reduction in hemorrhages around the retinal vessels and cotton wool spots

## CC12CC3CC(C)(C1)CC(N)(C3)C2.Cl [memantine, 1-amino-3,5-dimethyladamantane hydrochloride]
[2]
  solubility: 3.5%
[3]
  binding to natural and synthetic melanin: strongly bound
[4]
  apparent octanol/water partition coefficient (Log): 3.0
[5]
  pKa: 10.3
[6]; 0.74% aqueous isotonic solution pH 7.4, topical ophthalmic, sections 0.25-24 h post dosing
  tissue distribution after topical dosing (autoradiography): present in the posterior sclera, choroids and/or retina
[6]; albino and pigmented rabbits, topical ophthalmic 0.74% solution
  half-life in the posterior globe (qualitative): relatively long
[6]; pigmented tissues, topical ophthalmic 0.74% solution
  binding to ocular melanin (autoradiography intensity in pigmented tissues): bound to the ocular melanin
[6]; topical delivery
  route of penetration from topical delivery (autoradiography): trans-retinal route of penetration across the blood-retinal barrier
[7]; 35 μl of a 0.1% aqueous solution, topical, 35 μl of 0.1% aqueous solution twice a day for 7 days
  concentration at 7 days: 107 ng/mL
[7]; oral, 2 mg/kg for seven days
  concentration at 7 days: 108 ng/mL

## CC(C)(C)NC[C@H](O)COc1nsnc1N1CCOCC1 [Timolol]
[8]; after two weeks of Timolol 0.5% 1 drop two times daily, both eyes, baseline 32 mmHg, Goldmann tonometer
  intraocular pressure: 28 mmHg
[8]; human, in vivo
  blood pressure: 118/86
  pulse rate: 65 beats/min

## C[C@@H]1C/C=C/C=C/C=C/C=C/[C@H](O[C@@H]2O[C@H](C)[C@@H](O)[C@H](N)[C@@H]2O)C[C@@H]2O[C@](O)(C[C@@H](O)C[C@H]3O[C@@H]3/C=C/C(=O)O1)C[C@H](O)[C@H]2C(=O)O [natamycin]
[9]
  clinical outcome: symptoms have not improved
